Paper PMC11434026, “Development and Validation of an LC-MS/MS Assay for the Quantitation of MO-OH-Nap Tropolone in Mouse Plasma: Application to In Vitro and In Vivo Pharmacokinetic Studies” (Molecules, 2024)
Like-named read-outs stand apart in the source and are kept apart here.

Experiments:
[1] = Blood to plasma ratio (B/P) in fresh mouse blood; assay type: in vitro ADME; conditions: 1 µM, 37 °C
Experimental: Fresh mouse blood (800 µL) was incubated in a water bath maintained at 37 °C for 10 min prior to drug spiking. Blood was spiked with the drug at concentrations of 1 µM to maintain organic content < 1%. Aliquots of 50 µL were collected at different time points (0, 30, and 60 min) for blood analysis as well an additional sample of 120 µL was collected into a micro-centrifuge tube and centrifuged at 4000× g for 10 min at 4 °C to separate 50 µL plasma for analysis. For matrix match and calibration, blank plasma of 50 µL was added to the collected blood aliquot, and 50 µL of blank blood was added to the extract of 50 µL plasma. The whole blood and plasma samples were further processed by PPT as described above. The analyte peak area ratios were used to calculate the (B/P) ratio using Equation (5). (5) (B/P) ratio=Blood Concentration /Plasma Concentration

mouse plasma proteins = experiment: Plasma protein binding by Rapid Equilibrium Dialysis (RED); assay type: in vitro ADME; conditions: for % Drug Remaining at 5 h ± SD: 37 °C; for Equilibrium at 5 h ± SD: receiver/donor concentration; for % Plasma Protein Bound ± SD: mouse plasma; for % Drug Remaining at 5 h ± SD / % Plasma Protein Bound ± SD: 5 h
Experimental: […] The RED Kit represents 90 wells with two chambers at each well (red chamber for plasma and white buffer chamber separated by Teflon base plate. Prior to the experiments, RED kit was rinsed with 10% ethanol for 10 min and left to dryness. Also, mouse plasma was centrifuged at 2200 rpm (540× g) for 5 min and adjusted to pH […] with lactic acid. In brief, MO-OH-Nap spiked plasma samples (300 µL) were added in red chamber. The buffer chamber contained […] of Phosphate-buffered saline (100 mM, pH 7.4), which contained 100 mM sodium phosphate (Na3PO4) and 150 mM NaCl. The RED kit plate was covered with sealing tape and incubated at 37 °C on an orbital shaker at 300 rpm for 5 h. Aliquot of 50 µL were collected from both chambers, then mixed with equal amount of buffer or blank plasma, consecutively, for analysis. The samples were then processed using PPT extraction technique, as per described in the Section 4.4, and analyzed by LC-MS/MS.
Additionally, the plasma stability and the non-specific binding potential of MO-OH-Nap to the RED kit dialysis membrane were determined separately at the same time from the remaining plasma samples spiked with MO-OH-Nap.
Stability and non-specific binding were assessed by collecting samples at 0 h and 5 h of spiked MO-OH-Nap […] that was incubated in the same PPB condition for 5 h. The two samples were then analyzed by LC-MS/MS and the concentration was then compared between the two time points. The stability, equilibrium, device recovery, and PPB in plasma were calculated using the following equations:(6) % Drug Bound=Concentrationdonor cell−Conentrationreceiver cell/Concentrationdonor cell×100 (7) % Device Recovery=Concentrationreceiver cell+Concentrationdonor cell/Concentration5 h×100 (8) % Remaining at 5 h=Concentration5 h/Concentration0 h×100 (9) Equilibrium at 5 h=Concentrationreceiver cell/Concentrationdonor cell

[2] = In vitro metabolic stability in rat liver microsomes; assay type: in vitro ADME; conditions: RLM
Experimental: Metabolic stability was assessed using mouse, rat, and human liver microsomes (XenoTech, LLC, Lenexa, KS, USA) for phase I metabolism. Briefly, A reaction solution was prepared by mixing […] of PBS (100 mM, pH 7.4), 25 µL of microsomal protein (20 mg/mL), MgCl2 (5 µL; 10 mM), and 50 µL of NADPH (2 mM). The final volume (0.5 mL) was pre-incubated for 10 min in a 37 °C water bath at 60 rpm. An aliquot of MO-OH-Nap (2 µL from 1 µg/mL stock) was spiked into the above solution to initiate the reaction. Aliquots of (50 µL) were collected at time intervals (0, 5, 15, 20, 30, 45, and 60 min) and quenched with 300 µL of ACN, […]. Afterwards, 10 µL of IS stock (1.0 µg/mL) was spiked in each sample then vortexed (5 min) and centrifuged at 10,800 rpm (13,000× g) for 15 min. Samples were vortexed and centrifuged at 10,800 rpm (13,000× g) for 15 min, the supernatant was collected and transferred to an HPLC vial and 10 µL were injected into the LC-MS/MS system. Testosterone and diclofenac were used as positive and negative controls to ensure that liver microsomes and incubation conditions were appropriate for conducting metabolism studies.

[3] = Plasma pharmacokinetics after single IP dose in CD-1 mice; assay type: in vivo, mouse; conditions: for Cmax / Vd/F / AUC: 5 mg/kg
Experimental: Female CD-1 mice,6–8-week-old, with weights ranging from 20 to 25 g were housed in the UNMC animal facility, at a temperature of 23–24 °C, relative humidity of 40–70%, and 12/12-h light/dark cycles. Mice were left to acclimatize to laboratory conditions for 7 days prior to experimental day. MO-OH-Nap was dissolved in a 5% DMSO, 45% w/v hydroxypropyl-β-cyclodextrin solution in PBS (final concentration 0.625 mg/mL MO-OH-Nap). MO-OH-Nap (5 mg/kg) was administered IP. After dosing, approximately 100 µL of blood was collected in Lithium-Heparin-Microvette 300 µL Capillary Blood Collection Tube (SARSTEDT AG& Co., Nümbrecht, Germany) from the maxillary vein at 5, 15, 30 min and 1, 2, 4, 6, 8, 24, and 48 h. Two blood time points were collected from every mouse and the third time point was the terminal time point, for a total of three time points from each mouse (5 mice/group/per time point). Blood was centrifuged at 4000× g at 4 °C for 10 min to extract plasma. The collected plasma samples were stored at −80 °C until analysis. The pharmacokinetics of MO-OH-Nap were determined using non-compartmental (NCA) pharmacokinetics analysis, utilizing Phoenix® WinNonlin software version 8.2 (Certara Corporation, Mountain View, CA, USA). The Cmax and Tmax were determined from visual inspection of the concentration time data. The AUC0_∞ was estimated using the linear trapezoidal method from 0 time point to last time point (0-tlast) and extrapolation from last time point to infinity based on the observed concentration at the last time point divided by the terminal elimination rate constant (k). The t1/2, CL/F and Vd/F were calculated using Equation (10), Equation (11) and Equation (12), respectively. (10) t1/2=0.693/k (11) CL=Dose/AUC0_∞ (12) Vd=Dose /k×AUC0_∞

[4] = female, mouse, CD-1 mice, single IP 5 mg/kg, plasma

For `O=c1c(O)ccccc1-c1ccc2ccccc2c1` [MO-OH-Nap, MO-OH-Nap tropolone], which “B/P Ratio” value ([1]; 0 min) is on record?
The value was 1.1 ± 0.1.

And the “B/P Ratio” value ([1]; 30 min)?
Its value is 0.9 ± 0.2.

And the “B/P Ratio” value ([1]; 60 min)?
The value was 1.0 ± 0.12.

What about the “% Drug Remaining at 5 h ± SD” value (mouse plasma proteins; 1 µg/mL) of the same compound?
Its value is 105.6 ± 0.8%.

What about the “Equilibrium at 5 h ± SD” value (mouse plasma proteins; 1 µg/mL) of the same compound?
The value was 0.3 ± 0.5.

And the “% Drug Remaining at 5 h ± SD” value (mouse plasma proteins; 10 µg/mL)?
Its value is 91.1 ± 2.5%.

And the “Equilibrium at 5 h ± SD” value (mouse plasma proteins; 10 µg/mL)?
The value was 0.1 ± 0.00.

And the “% Plasma Protein Bound ± SD” value (mouse plasma proteins; 1 µg/mL)?
The value was 99.6 ± 0.1%.

And the “% Plasma Protein Bound ± SD” value (mouse plasma proteins; 10 µg/mL)?
Its value is 99.7 ± 0.1%.

What about the metabolic depletion ([2]; NADPH, 60 min) of the same compound?
Its metabolic depletion is under 15%.

What about the parent drug remaining ([2]; all time points to 60 min) of the same compound?
The parent drug remaining was over 95%.

And the detectability in plasma ([3]; 48 h after single IP 5 mg/kg)?
Its detectability in plasma is “detectable”.

What about the Cmax ([3]; CD-1 mice, single IP 5 mg/kg, plasma) of the same compound?
Its Cmax is 3040.9 ng/mL.

And the Vd/F ([3]; CD-1 mice, single IP 5 mg/kg)?
Its Vd/F is 43,727.1 mL/kg.

What about the AUC ([3]; female, CD-1, mouse, plasma, ip, CD-1 mice, single IP 5 mg/kg, plasma, read-out: AUC0_last) of the same compound?
Its AUC is 2750 ng·h/mL.

What about the AUC ([3]; female, CD-1, mouse, plasma, ip, CD-1 mice, single IP 5 mg/kg, plasma, read-out: AUC0_∞) of the same compound?
Its AUC is 2860 ng·h/mL.

And the Cmax ([3]; female, CD-1, mouse, plasma, ip, CD-1 mice, single IP 5 mg/kg, plasma, read-out: Cmax)?
The Cmax was 3040 ng/mL.

What about the Vd/F ([3]; female, CD-1, mouse, plasma, ip, CD-1 mice, single IP 5 mg/kg, read-out: Vd/F) of the same compound?
Its Vd/F is 43.3 L/kg.

And the CL/F ([3]; female, mouse, plasma, CD-1 mice, single IP 5 mg/kg)?
The CL/F was 29.8 mL/min/kg.

What about the Tmax [3, 4] of the same compound?
Its Tmax is 0.3 h.

What about the half-life [3, 4] of the same compound?
The half-life was 17.7 h.
